Measured values published in US20210113715A1, “TARGETED NANOPARTICLES FOR DIAGNOSING, DETECTING AND TREATING CANCER” (CEDARS-SINAI MEDICAL CENTER, priority 2018, published 2021).
Entries after “also recorded” stand apart in the source; their conditions may differ.

How the values were obtained:
[1] = system: OATP transporter (U87 cells); test: Inhibition of HMC-FH uptake by pre-incubation with inhibitors; type: cell-based; conditions: fluorescence microscopy and flow cytometry
Description: Next, we tested the ability of HMC-FH to target and internalize into various GBM cancer cell lines.

[2] = system: human intracranial U87MG tumors; test: HMC-FH(PTX) treatment of nude mice with intracranial U87MG tumors; type: in vivo; conditions: six treatments, 1 mg HMC, 3 mg PTX and 4 mgFe/kg; treatment period 40 days after tumor inoculation
Description: Brain MRI images of treated mice (FIG. 46A). […] Corresponding mice body weight measurements (FIG. 46D).
The HMC-FH(PTX) was next used to treat nude mice with human intracranial U87MG tumors. […] It is not until after the treatment period that tumors start developing in the HMC-FH(PTX) treated mice (FIG. 46B).

[3] = system: intracranial U87 GBM tumors; test: Survival studies (Kaplan-Meier) of mice with intracranial U87 tumors; type: in vivo; conditions: treated 14 days after tumor implantation, 3 umol drug/kg i.v. twice a week for three weeks, n=5
Description: A dose of 3 umol drug/kg, 22 mM Fe (FH) was administered i.v via tail vein injection twice a week for […].
(§1) A dose of 3 umol drug/kg, 22 mM Fe (FH) was administered i.v. via tail vein injection twice a week for three weeks.
as §1
HMC-FH(PXL) and HMC-FH(BFA) increase the survival of mice with GBM tumors. In these experiments, we injected mice (n=5) with intracranial U87 GBM tumors with HMC-FH encapsulated with either paclitaxel (PTX) or docetaxel (DXT). As control, we injected either PBS or the corresponding drug along at equal concentrations. In initial studies, treatment started “late”, 14 days after tumor implantation. […] In additional studies, treatment was started earlier, 5 days after injection, to find out if an early treatment would improve survival. Impressive results were obtained by injecting HMC-FH(PXL), 5 days after tumor implantation.
In initial animal studies using BFA and HMC-FH(BFA), we injected mice (n=5) with intracranial U87 GBM tumors with either BFA (dissolved in DMSO) or HMC-FH(BFA) in saline. In these studies, treatment started “late”, 14 days after tumor implantation. […] The ability of BFA to cross the BBB has not been studied or reported, to our knowledge. However, due to its poor solubility, it is advantageous to encapsulate BFA in HMC-FH.

[4] = system: PC3 prostate cancer cells; test: Transwell cell migration, PC3; type: cell-based; conditions: PC3, 24 h at 37° C.
Description: After incubation, nonmigratory cells and media were washed from transwells, and those cells that migrated to the bottom of the filters were, fixed and stained and imaged using a fluorescence Microscope. […] Quantification of the average number of cells per image that have migrated (FIG. 8C).

TMZ-resistant U87R cells = test: Transwell cell migration, U87R; type: cell-based
Description: After incubation, nonmigratory cells and media were washed from transwells, and those cells that migrated to the bottom of the filters were, fixed and stained and imaged using a fluorescence Microscope (Keyence BZ-X7 00). Representative images (5 fields) were taken of treatment (2 uM of each-BFA, HMC-FH and HMC-FH (BFA, DMSO) for quantification.

[5] = system: LNCaP prostate cancer cells; test: Transwell cell migration, LNCaP; type: cell-based; conditions: 24 h at 37° C.
[6] = system: intracranial U87MG tumors; conditions: mouse, in vivo
Description: Mouse brains were extracted from the mouse skull, and tumors visualized and resected from the healthy brain while recording using SIRIS.

Question: For O=CC[C@@H](O)[C@H](O)[C@H](O)CO [2-deoxyglucose], which “effect of pre-incubation on HMC-FH uptake” value [1] is on record?
Answer: do not block the internalization

Question: With CC(=O)O[C@H]1C(=O)[C@@]2(C)[C@H]([C@H](OC(=O)c3ccccc3)[C@]3(O)C[C@H](OC(=O)[C@H](O)[C@@H](NC(=O)c4ccccc4)c4ccccc4)C(C)=C1C3(C)C)[C@]1(OC(C)=O)CO[C@@H]1C[C@@H]2O [PTX, paclitaxel] as the molecule, how does the “tumor growth / tumor detection by MRI or histopathology” value [2] read?
Answer: developed visible tumor

Question: What does the source list for C[C@H]1CCC/C=C/[C@@H]2C[C@H](O)C[C@H]2[C@H](O)/C=C/C(=O)O1 [BFA, Brefeldin A]?
Answer: survival, BFA formulations [3]: significantly longer than in the control mice; also recorded: enhanced mice survival; cell migration [4]: decreased migration; cell migration (TMZ-resistant U87R cells; U87R, 2 uM, 24 h): decreased migration; cell migration (TMZ-resistant U87R cells; printed as U87 cells): decrease cell migration

Question: What does the source list for CC(=O)O[C@@]12CO[C@@H]1C[C@H](O)[C@@]1(C)C(=O)[C@H](O)C3=C(C)[C@@H](OC(=O)[C@H](O)[C@@H](NC(=O)OC(C)(C)C)c4ccccc4)C[C@@](O)([C@@H](OC(=O)c4ccccc4)[C@H]21)C3(C)C [DXT, docetaxel]?
Answer: cell migration [4]: decreased migration; cell migration [5]: decreased migration

Question: For CC1(C)C(/C=C/C=C/C=C/C=C2\N(CCCCS(=O)(=O)[O-])c3ccc4ccccc4c3C2(C)C)=[N+](CCCCS(=O)(=O)[O-])c2ccc3ccccc3c21.[Na+] [ICG], which “fluorescent labeling / localization to tumor” value [6] is on record?
Answer: does not show tumor localization

Question: How did the “effect of pre-incubation on HMC-FH uptake” value [1] turn out when COC(=O)N[C@H](C(=O)N[C@@H](Cc1ccccc1)[C@@H](O)CN(Cc1ccc(-c2ccccn2)cc1)NC(=O)[C@@H](NC(=O)OC)C(C)(C)C)C(C)(C)C [Atazanir] was run?
Answer: uptake and cell associated fluorescence was reduced; also recorded: inhibits HMC-FH internalization
